The values that follow come from US10633389B2, “CARM1 inhibitors and uses thereof” (Epizyme, Inc., priority 2013, dated 2020).

By IC50 is commonly meant the midpoint of a concentration-inhibition curve. Higher therefore signals a need for much substance.

In this assay the test system is asymmetric di-methyl PABP1 in RKO cells. Description: RKO methylation assay, In Cell Western (ICW) for asymmetric di-methyl PABP1. The format is cell-based. To be noted: Homo sapiens, RKO, Cellular potencies, ICW PABP1me2a. The method, boiled down: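 In-cell Western on fixed RKO cells after 48 h compound exposure: anti-asymmetric di-methyl PABP1 signal at 800 nm over DRAQ5 DNA signal at 700 nm. Percent inhibition set between DMSO wells and wells with 20 μM reference compound; IC50 curves fitted in triplicate.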
With `CNC[C@@H](O)COc1ccc(F)c(-c2nc(-c3c(C)noc3C)c(C)c(N3CC4(CCOCC4)C3)n2)c1` [Example 227-3], the IC50 was < 5 µM.

In the case of `CNCC(O)COc1cccc(-c2nc(NCC3CCN(C(=O)OC)CC3)c(C)c(-c3c(C)noc3C)n2)c1` (stereo not shown) [Example 184-1a], the IC50 was < 5 µM.

With `CNCC(O)COc1cccc(-c2nc(OCC3CCN(C(=O)OC)CC3)c(C)c(-c3c(C)noc3C)n2)c1` (stereo not shown) [Example 284-1a], the IC50 is < 5 µM.

For `CCN1CCC[C@@H]1CNc1nc(-c2cc(OC[C@@H](O)CNC)ccc2Cl)nc(-c2c(C)noc2C)c1C` [Example 77-3], the half-inhibitory concentration (IC50) was < 5 µM.

Regarding `CNC[C@@H](O)COc1ccc(Cl)c(-c2nc(NC3CCOCC3)c(C)c(-c3c(C)noc3C)n2)c1` [Example 127-3], the IC50 is < 5 µM.

`CNCC(O)COc1cccc(-c2nc(-c3ccnc(C#N)c3)cc(N(C)C3CCOCC3)n2)c1` (stereo not shown) [Example 498-1a]: the half-maximal inhibitory concentration (IC50) was < 5 µM.

`CNCC(O)COc1cccc(-c2nc(-c3cnc4c(C(=O)N(C)C)cnn4c3)cc(N(C)C3CCOCC3)n2)c1` (stereo not shown) [Example 514-1a] gave a 50% inhibitory concentration (IC50) of 5 to 10 µM.

With `CNCC(O)COc1cccc(-c2nc(-c3c(C)noc3C)cc(N3CCN(CC(F)F)[C@H](C)C3)n2)c1` (stereo partly shown) [Example 174-1a], the IC50 was < 5 µM.

On to `CCOC(=O)N1CC2(CCCN(c3nc(-c4cccc(OCC(O)CNC)c4)nc(-c4c(C)noc4C)c3C)C2)C1` (stereo not shown) [Example 295-1a], for which the IC50 was < 5 µM.

Consider `CNCC(O)COc1ccc(Cl)c(-c2nc(O[C@H]3CCN(C(=O)OC)[C@@H](C)C3)c(C)c(-c3c(C)noc3C)n2)c1` (stereo partly shown) [Example 36-3], for which the IC50 is < 5 µM.

Turning to `CNCC(O)COc1cccc(-c2nc(-c3c(C)noc3C)c(C)c(N3CC(NC(=O)N(C)C)C3)n2)c1` (stereo not shown) [Example 13-3], the IC50 was < 5 µM.

Regarding `CNC[C@H](O)COc1ccc(Cl)c(-c2nc(NCCC(C)(C)OC)c(C)c(-c3c(C)noc3C)n2)c1` [Example 82-3], the IC50 was < 5 µM.

Regarding `CNCC(O)COc1cccc(-c2nc(-c3c(C)noc3C)cc(N3CCNC(C(F)(F)F)C3)n2)c1` (stereo not shown) [Example 131-1a], the IC50 was < 5 µM.

As to `CNC[C@@H](O)COc1ccc(Cl)c(-c2nc(-c3c(C)noc3C)cc(N3CC4(CCOCC4)C3)n2)c1` [Example 249-3], the IC50 is < 5 µM.

For `CNCC(O)COc1cccc(-c2nc(NC3CCN(C4COC4)C3)c(C)c(-c3c(C)noc3C)n2)c1` (stereo not shown) [Example 240-1a], the IC50 is < 5 µM.

For the compound `CNC[C@@H](O)COc1ccc(Cl)c(-c2nc(-c3c(C)noc3C)c(C)c(N3CC4(CCN(C(=O)OC)C4)C3)n2)c1` [Example 175-3], the IC50 was < 5 µM.

`CNCC(O)COc1cccc(-c2nc(NC3CCOC3)cc(-c3c(C)noc3C)n2)c1` (stereo not shown) [Example 31-1a] came in with an IC50 of 5 to 10 µM.

Consider `CCOC(=O)N1CCC(Nc2nc(-c3cccc(OCC(O)CNC)c3)nc(-c3c(C)noc3C)c2C)CC1` (stereo not shown) [Example 189-1a], for which the IC50 is < 5 µM.

Regarding `CCS(=O)(=O)N1CCCC(CNc2nc(-c3cccc(OCC(O)CNC)c3)nc(-c3c(C)noc3C)c2C)C1` (stereo not shown) [Example 167-1a], the IC50 was < 5 µM.

For the compound `CC[C@H]1CN(c2nc(-c3cccc(OCC(O)CNC)c3)nc(-c3c(C)noc3C)c2C)CCN1S(C)(=O)=O` (stereo partly shown) [Example 155-1a], the IC50 is < 5 µM.

In the case of `CNCC(O)COc1cccc(-c2nc(-c3c(C)nn(C(C)C)c3C)cc(N(C)C3CCOCC3)n2)c1` (stereo not shown) [Example 496-1a], the IC50 is < 5 µM.

On to `CNCC(O)COc1cccc(-c2nc(N[C@@H]3CCOC3)c(C)c(N3Cc4cccnc4C3)n2)c1` (stereo partly shown) [Example 394-1a], for which the IC50 was < 5 µM.

As for `CNC[C@@H](O)COc1cccc(-c2nc(NC3CCN(C(=O)OC)C(C)C3)c(C)c(-c3c(C)noc3C)n2)c1` (stereo partly shown) [Example 32-3], the IC50 is < 5 µM.

With `CNC[C@@H](O)COc1ccc(Cl)c(-c2nc(N[C@H]3C[C@@H](OC)C3)c(Cl)c(-c3c(C)noc3C)n2)c1` [Example 216-3], the half-inhibitory concentration (IC50) is < 5 µM.

Regarding `CNCC(O)COc1cccc(-c2nc(-c3c(C)noc3C)cc(N3CCNC(C(=O)O)C3)n2)c1` (stereo not shown) [Example 29-1a], the IC50 was 10 to 20 µM.

Turning to `CNCC(O)COc1cccc(-c2nc(-c3cncnc3)cc(N(C)C3CCOCC3)n2)c1` (stereo not shown) [Example 525-1a], the IC50 lay in the range of 5 to 10 µM.

`CNC[C@@H](O)COc1ccc(Cl)c(-c2nc(-c3c(C)noc3C)c(C)c(N3CC4(CCOCC4)C3)n2)c1` [Example 118-3]: the IC50 is < 5 µM.

Turning to `CNCC(O)COc1cccc(-c2nc(Nc3cnc(OC)nc3)cc(-c3c(C)noc3C)n2)c1` (stereo not shown) [Example 72-1a], the IC50 was < 5 µM.

Regarding `CNC[C@@H](O)COc1ccc(F)c(-c2nc(-c3c(C)noc3C)c(C)c(N3Cc4cc(Cl)cnc4C3)n2)c1` [Example 185-3], the IC50 is < 5 µM.

As for `CNCC(O)COc1cccc(-c2nc(C(C)=O)c(C)c(N(C)C3CCOCC3)n2)c1` (stereo not shown) [Example 544-1a], the IC50 is 10 to 20 µM.

Turning to `CNC[C@@H](O)COc1ccc(Cl)c(-c2nc(N[C@@H]3CO[C@@H](C)C3)c(C)c(-c3c(C)noc3C)n2)c1` [Example 162-3], the IC50 is < 5 µM.

Consider `CNCC(O)COc1cccc(-c2nc(-c3c(C)noc3C)cc(N3CCN(CC(F)(F)F)[C@H](C)C3)n2)c1` (stereo partly shown) [Example 144-1a], for which the IC50 was < 5 µM.

Turning to `CNC[C@@H](O)COc1ccc(Cl)c(-c2nc(-c3c(C)noc3C)c(Cl)c(N3Cc4nccnc4C3)n2)c1` [Example 225-3], the IC50 is < 5 µM.

`CNCC(O)COc1cccc(-c2nc(NC3CCN(CC(F)F)C3)c(C)c(-c3c(C)noc3C)n2)c1` (stereo not shown) [Example 195-1a]: the IC50 was < 5 µM.

For the compound `CCOC(=O)N1CCOC[C@H]1CNc1nc(-c2cc(OC[C@@H](O)CNC)ccc2Cl)nc(-c2c(C)noc2C)c1C` [Example 24-3], the IC50 is < 5 µM.

With `CNC[C@@H](O)COc1ccc(Cl)c(-c2nc(NC[C@H]3CCCO3)c(C)c(-c3c(C)noc3C)n2)c1` [Example 130-3], the IC50 was < 5 µM.

For the compound `CCS(=O)(=O)N1CCCC(Nc2nc(-c3cccc(OCC(O)CNC)c3)nc(-c3c(C)noc3C)c2C)C1` (stereo not shown) [Example 204-1a], the 50% inhibitory concentration (IC50) is < 5 µM.

As for `CNCC(O)COc1cccc(-c2nc(N3CCN(C)CC3)cc(N(C)C3CCOCC3)n2)c1` (stereo not shown) [Example 531-1a], the IC50 lay in the range of 5 to 10 µM.

As to `CNCC(O)COc1cccc(-c2nc(NC3CCOCC3)cc(-c3c(C)noc3C)n2)c1` (stereo not shown) [Example 33-1], the IC50 was < 5 µM.

In turn, `CNCC(O)COc1cc(Cl)cc(-c2nc(-c3cnc4ccccc4n3)c(C)c(N(C)C3CCOCC3)n2)c1` (stereo not shown) [Example 612-1a] came in with an IC50 of 10 to 20 µM.

With `CNC[C@H](O)COc1ccc(Cl)c(-c2nc(N[C@@H]3CCN(C(=O)OC)[C@@H](C)C3)c(C)c(-c3c(C)noc3C)n2)c1` [Example 66-3], the half-maximal inhibitory concentration (IC50) was < 5 µM.

In the case of `CNCC(O)COc1cccc(-c2nc(N[C@@H]3CCOC3=O)c(C)c(-c3c(C)noc3C)n2)c1` (stereo partly shown) [Example 291-1a], the IC50 fell in the range of 10 to 20 µM.

As for `CNCC(O)COc1cccc(-c2nc(-c3c(C)noc3C)c(C)c(N3CCO[C@@H](CN(C)C(=O)OC)C3)n2)c1` (stereo partly shown) [Example 149-1a], the IC50 is < 5 µM.

In turn, `CNCC(O)COc1cccc(-c2nc(-c3c(C)noc3C)c(C)c(N3CCNC(C(F)F)C3)n2)c1` (stereo not shown) [Example 47-3] returned an IC50 of 10 to 20 µM.

In turn, `CNCC(O)COc1cccc(-c2nc(N[C@@H]3CCOC3)c(C)c(N3CCC(N4CCOCC4)CC3)n2)c1` (stereo partly shown) [Example 367-1a] displayed an IC50 of 5 to 10 µM.

Take `CNCC(O)COc1cccc(-c2nc(-c3cnc(C)n3C)cc(N(C)C3CCOCC3)n2)c1` (stereo not shown) [Example 517-1a]: the IC50 was in the range of 5 to 10 µM.

As for `CNCC(O)COc1cccc(-c2nc(N[C@@H]3CC[C@@H](O)C3)cc(-c3c(C)noc3C)n2)c1` (stereo partly shown) [Example 44-1a], the IC50 lay within 5 to 10 µM.

As for `CNCC(O)COc1cccc(-c2nc(N[C@@H]3CCOC3)c(C)c(N3CC[C@@H](O)C3)n2)c1` (stereo partly shown) [Example 437-1a], the half-maximal inhibitory concentration (IC50) was 5 to 10 µM.

`CNCC(O)COc1cccc(-c2nc(NC3CN(C(=O)C4CC4)C3)c(C)c(-c3c(C)noc3C)n2)c1` (stereo not shown) [Example 264-1a] gave an IC50 of 5 to 10 µM.

Consider `CNCC(O)COc1cccc(-c2nc(-c3c(C)noc3C)c(C)c(N3CCC4(CC3)CN(C(=O)OC)C4)n2)c1` (stereo not shown) [Example 251-1a], for which the IC50 was < 5 µM.

`CNC[C@H](O)COc1cccc(-c2nc(NC3CCOCC3)cc(-c3c(C)noc3C)n2)c1` [Example 17-1a]: the IC50 was < 5 µM.

On to `CNC[C@H](O)COc1ccc(Cl)c(-c2nc(-c3c(C)noc3C)c(C)c(N3Cc4cc(F)cnc4C3)n2)c1` [Example 86-3], for which the half-maximal inhibitory concentration (IC50) is < 5 µM.

On to `CNC[C@@H](O)COc1cccc(-c2nc(NC3CCN(C(=O)OC)CC3)c(C)c(-c3c(C)noc3C)n2)c1` [Example 170-1a], for which the half-inhibitory concentration (IC50) was < 5 µM.

Consider `CNCC(O)COc1cccc(-c2nc(N[C@@H]3CCOC3)c(C)c(N3CC4CN(S(C)(=O)=O)CC4C3)n2)c1` (stereo partly shown) [Example 11-3], for which the IC50 lay in the range of 5 to 10 µM.

In turn, `CNCC(O)COc1cccc(-c2nc(NC3CCOCC3)c(C)c(-c3c(CO)noc3C)n2)c1` (stereo not shown) [Example 256-3] returned a 50% inhibitory concentration (IC50) of 5 to 10 µM.

The compound `CNCC(O)COc1cccc(-c2nc(N[C@@H]3CCOC3)c(C)c(N(C)C3CCN(C)CC3)n2)c1` (stereo partly shown) [Example 379-1a] had a half-maximal inhibitory concentration (IC50) of 10 to 20 µM.

As for `CNCC(O)COc1cccc(-c2nc(N[C@@H]3CCN(C(=O)OC)C[C@H]3F)c(C)c(-c3c(C)noc3C)n2)c1` (stereo partly shown) [Example 228-1a], the IC50 was < 5 µM.

As to `CNCC(O)COc1cccc(-c2nc(-c3c(C)noc3C)c(C)c(N3C[C@H](C)O[C@@H](C)C3)n2)c1` (stereo partly shown) [Example 199-1a], the IC50 is < 5 µM.

In the case of `CNCC(O)COc1cccc(-c2nc(-c3c(C)noc3C)c(C)c(N3CC[C@@H](S(C)(=O)=O)C3)n2)c1` (stereo partly shown) [Example 111-1a], the IC50 is 5 to 10 µM.

Regarding `CNCC(O)COc1cccc(-c2nc(-c3cnc4ncccn34)cc(N(C)C3CCOCC3)n2)c1` (stereo not shown) [Example 489-1a], the half-inhibitory concentration (IC50) was < 5 µM.

On to `CNC[C@@H](O)COc1ccc(Cl)c(-c2nc(N[C@@H]3C[C@@H](C)O[C@@H](C)C3)c(Cl)c(-c3c(C)noc3C)n2)c1` [Example 183-3], for which the IC50 was < 5 µM.
